# Measurements reported in patent publication US20240317739A1, “NOVEL UREA DERIVATIVE COMPOUND AS RON INHIBITOR” (LG CHEM, LTD., priority 2021, published 2024).
# Assays:
# cMET = cMET (Homo sapiens, UniProt P08581); assay: Evaluation of inhibitory activity against MET (TR-FRET); type: biochemical; settings: TR-FRET kinase assay, cMET protein
# Experimental: In addition, in order to measure the enzyme activity inhibition for cMET, the evaluation was performed in the same manner as the enzyme activity inhibition measurement experiment for the RON.
# (§1) Specifically, the compound was prepared to a concentration of 1 mM with 100% DMSO and was diluted 10 times in a stepwise manner through 3-fold dilution. 2 ul of the compound diluted in a stepwise manner was added to a 96-well-plate containing 48 ul of a 1× kinase reaction buffer (50 mM HEPES (pH 7.4), 0.05% BSA, 0.005% Tween-20, 1 mM DTT, 0.5 mM MnCl2, 20 mM MgCl2).
# The cMET protein was diluted to a concentration of 263 nM with a cMET storage buffer (50 mM Tris-HCl (pH 7.5), 150 mM NaCl, 0.05% Brij35, 1 mM DTT, 10% Glycerol), and then diluted again to a concentration of 2 nM with a 1× kinase reaction buffer. As a substrate cocktail, a MET-specific substrate mixture (5 uM TK peptide, […]) at a concentration 2 times the final reaction concentration.
# (§2) Thereafter, a 384-well-plate was prepared, and 2.5 μl of each of the diluted compounds of Examples was added to a corresponding well of experimental group wells, and 2.5 μl of a 4% DMSO solution was dispensed into high control wells and low control wells.
# (§3) Thereafter, 2.5 μL of 2 nM cMET was dispensed into the high control wells and the experimental group wells, and 2.5 μL of a 1× kinase reaction buffer was added to the low control wells, and the RON and the reaction buffer were centrifuged at room temperature for 40 seconds at 1000 RPM, and then incubated at room temperature for 20 to 30 minutes. Then, 5 uL of a substrate cocktail (2×) was dispensed into all wells, centrifuged at room temperature for 40 seconds at 1000 RPM, and then incubated at room temperature for 60 minutes. Thereafter, 5 uL of 90 mM EDTA was added to all wells to terminate the reaction, and then incubated again at room temperature for 5 minutes. Thereafter, 5 uL of a 4× phosphotyrosine antibody (Perkin Elmer) containing europium was added to all wells, and then incubated at room temperature for 60 minutes. After the incubation, the 384-well-plate was read with a Vison plate reader. At this time, the excitation wavelength was 340 nm, and the emission wavelength was 620 nm and 665 nm. The 1050 value of the compound of each Example was derived using the GraphPd Prism7 program.
# RON = RON (Homo sapiens, UniProt Q04912); assay: Evaluation of inhibitory activity against RON (TR-FRET); type: biochemical; settings: TR-FRET kinase assay, RON protein
# RON, sequence (Q04912 25-1400, species assumed): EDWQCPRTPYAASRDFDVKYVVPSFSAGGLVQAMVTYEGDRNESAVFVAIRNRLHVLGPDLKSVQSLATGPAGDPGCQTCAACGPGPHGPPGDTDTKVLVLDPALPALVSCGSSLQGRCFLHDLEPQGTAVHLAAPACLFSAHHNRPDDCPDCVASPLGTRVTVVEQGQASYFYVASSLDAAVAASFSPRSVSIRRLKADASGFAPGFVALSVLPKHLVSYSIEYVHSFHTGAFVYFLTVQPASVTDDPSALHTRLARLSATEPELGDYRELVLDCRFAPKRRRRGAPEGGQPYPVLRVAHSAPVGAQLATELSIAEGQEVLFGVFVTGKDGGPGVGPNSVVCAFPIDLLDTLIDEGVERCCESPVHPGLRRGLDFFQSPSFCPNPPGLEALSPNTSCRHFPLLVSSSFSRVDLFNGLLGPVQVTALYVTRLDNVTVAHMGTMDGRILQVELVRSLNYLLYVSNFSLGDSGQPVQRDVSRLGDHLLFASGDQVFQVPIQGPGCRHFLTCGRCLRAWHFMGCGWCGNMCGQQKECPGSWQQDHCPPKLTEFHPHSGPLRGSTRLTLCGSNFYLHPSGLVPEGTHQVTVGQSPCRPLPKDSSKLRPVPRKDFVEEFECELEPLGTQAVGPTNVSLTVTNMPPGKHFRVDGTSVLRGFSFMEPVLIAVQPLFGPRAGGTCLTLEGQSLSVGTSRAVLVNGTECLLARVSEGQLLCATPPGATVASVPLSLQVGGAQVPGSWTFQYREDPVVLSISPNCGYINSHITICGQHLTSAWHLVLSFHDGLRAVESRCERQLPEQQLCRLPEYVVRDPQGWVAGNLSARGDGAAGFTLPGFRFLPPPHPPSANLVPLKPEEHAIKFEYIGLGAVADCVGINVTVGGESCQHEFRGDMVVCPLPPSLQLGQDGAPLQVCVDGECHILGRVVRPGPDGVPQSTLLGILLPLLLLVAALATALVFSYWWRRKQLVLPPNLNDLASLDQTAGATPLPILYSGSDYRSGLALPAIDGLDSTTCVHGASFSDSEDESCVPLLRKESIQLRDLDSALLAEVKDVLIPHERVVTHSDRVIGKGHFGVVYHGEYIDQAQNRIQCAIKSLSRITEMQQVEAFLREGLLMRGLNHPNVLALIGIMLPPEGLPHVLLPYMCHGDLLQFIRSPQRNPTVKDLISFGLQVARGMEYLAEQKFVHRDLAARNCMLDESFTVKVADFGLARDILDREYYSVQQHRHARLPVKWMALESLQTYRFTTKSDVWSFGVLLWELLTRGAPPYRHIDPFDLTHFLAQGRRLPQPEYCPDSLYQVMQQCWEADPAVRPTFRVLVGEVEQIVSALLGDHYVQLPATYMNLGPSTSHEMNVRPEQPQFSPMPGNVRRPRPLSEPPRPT
# Experimental: In order to measure the inhibitory activity of each of the compounds of Examples against RON, the IC50 of each of the compounds was measured using a Time-Resolved Fluorescence Energy Transfer Chemistry (TR-FRET).
# as §1, with “a 1×kinase” for “a 1× kinase”, “7.4), 0.01%” for “7.4), 0.05% BSA, 0.005%”, “Tween-20, 5” for “Tween-20, 1”, “mM Na3VO4, 2 mM EGTA, 10” for “mM MnCl2, 20”
# The RON protein was diluted to a concentration of 49.3 nM with an RON storage buffer (50 mM Tris-HCl (pH 7.5), 150 mM NaCl, 0.5 mM EDTA, 0.02% Triton X-100), and then diluted again to a concentration of 0.4 nM with a 1×kinase reaction buffer. As a substrate cocktail, a RON-specific substrate mixture (40 uM ULight-labeled Poly GT, 100 nM ATP) at a concentration 2 times the final reaction concentration.
# as §2
# as §3, with “of 0.4” for “of 2”, “nM RON” for “nM cMET”, “of 30” for “of 90”, “The IC50” for “The 1050”
# cMET, sequence (P08581 25-1390): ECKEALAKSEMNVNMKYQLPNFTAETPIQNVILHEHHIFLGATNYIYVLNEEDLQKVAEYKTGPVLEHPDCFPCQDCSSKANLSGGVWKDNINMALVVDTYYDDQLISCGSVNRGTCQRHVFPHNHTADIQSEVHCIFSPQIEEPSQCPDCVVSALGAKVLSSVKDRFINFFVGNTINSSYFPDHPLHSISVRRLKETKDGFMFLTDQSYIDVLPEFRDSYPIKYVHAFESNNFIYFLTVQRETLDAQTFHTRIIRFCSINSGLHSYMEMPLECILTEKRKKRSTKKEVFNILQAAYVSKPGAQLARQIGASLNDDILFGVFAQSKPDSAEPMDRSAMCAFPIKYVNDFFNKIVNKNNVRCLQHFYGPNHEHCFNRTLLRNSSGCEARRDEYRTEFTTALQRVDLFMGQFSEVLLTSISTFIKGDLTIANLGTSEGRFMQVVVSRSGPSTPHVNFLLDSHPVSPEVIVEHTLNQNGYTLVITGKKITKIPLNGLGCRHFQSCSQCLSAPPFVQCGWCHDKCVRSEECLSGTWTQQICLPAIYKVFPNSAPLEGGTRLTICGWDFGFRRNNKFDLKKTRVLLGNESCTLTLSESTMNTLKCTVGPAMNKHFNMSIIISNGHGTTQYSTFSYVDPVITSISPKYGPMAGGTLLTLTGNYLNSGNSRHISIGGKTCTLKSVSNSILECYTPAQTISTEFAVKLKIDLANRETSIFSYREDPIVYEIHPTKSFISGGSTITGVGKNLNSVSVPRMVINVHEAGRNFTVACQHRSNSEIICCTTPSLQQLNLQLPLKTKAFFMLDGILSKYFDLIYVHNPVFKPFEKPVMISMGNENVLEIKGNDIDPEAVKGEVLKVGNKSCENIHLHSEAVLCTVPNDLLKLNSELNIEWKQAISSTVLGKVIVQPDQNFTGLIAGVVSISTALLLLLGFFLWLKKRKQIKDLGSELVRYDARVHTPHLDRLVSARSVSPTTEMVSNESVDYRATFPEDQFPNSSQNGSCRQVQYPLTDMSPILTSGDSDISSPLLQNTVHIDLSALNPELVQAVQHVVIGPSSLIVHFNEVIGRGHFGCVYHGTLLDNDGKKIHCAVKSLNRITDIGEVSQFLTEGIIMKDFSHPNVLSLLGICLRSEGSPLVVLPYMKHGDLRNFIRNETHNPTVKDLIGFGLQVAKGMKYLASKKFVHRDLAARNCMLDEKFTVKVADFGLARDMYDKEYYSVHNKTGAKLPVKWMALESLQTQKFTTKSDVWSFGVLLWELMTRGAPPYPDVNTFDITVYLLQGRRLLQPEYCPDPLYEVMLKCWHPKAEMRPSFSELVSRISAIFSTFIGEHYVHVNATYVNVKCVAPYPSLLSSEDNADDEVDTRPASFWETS
SMILES,IC50 (cMET),IC50 (RON)
"COc1ccc(-n2ncc(C(=O)Nc3ccc(Oc4ccnc5[nH]c(=O)n(C(C)C)c45)c(F)c3)c2C(F)(F)F)nc1 [Example 34, N-(3-fluoro-4-((1-isopropyl-2-oxo-2,3-dihydro-1H-imidazo[4,5-b]pyridine-7-yl)oxy)phenyl)-1-(5-methoxypyridine-2-yl)-5-(trifluoromethyl)-1H-pyrazole-4-carboxamide]",> 5000 nM,50 to 500 nM
"Cc1cnc(-n2ncc(C(=O)Nc3ccc(Oc4ccnc5[nH]c(=O)n(C(C)C)c45)c(F)c3)c2C(F)(F)F)nc1 [Example 36, N-(3-fluoro-4-((1-isopropyl-2-oxo-2,3-dihydro-1H-imidazo[4,5-b]pyridine-7-yl)oxy)phenyl)-1-(5-methylpyrimidine-2-yl)-5-(trifluoromethyl)-1H-pyrazole-4-carboxamide]",500 to 5000 nM,< 50 nM
"CC(C)n1c(=O)[nH]c2nccc(Oc3ccc(NC(=O)c4cnn(-c5cc(F)ccn5)c4C(F)(F)F)cc3F)c21 [Example 38, N-(3-fluoro-4-((1-isopropyl-2-oxo-2,3-dihydro-1H-imidazo[4,5-b]pyridine-7-yl)oxy)phenyl)-1-(4-fluoropyridine-2-yl)-5-(trifluoromethyl)-1H-pyrazole-4-carboxamide]",> 5000 nM,< 50 nM
"O=C(Nc1ccc(Oc2ccnc3[nH]c(=O)n(C4CCOCC4)c23)c(F)c1)c1cnn(-c2ncccc2F)c1C(F)(F)F [Example 39, N-(3-fluoro-4-((2-oxo-1-(tetrahydro-2H-pyran-4-yl)-2,3-dihydro-1H-imidazo[4,5-b]pyridine-7-yl)oxy)phenyl)-1-(3-fluoropyridine-2-yl)-5-(trifluoromethyl)-1H-pyrazole-4-carboxamide]",500 to 5000 nM,< 50 nM
"O=C(Nc1ccc(Oc2ccnc3[nH]c(=O)n(C4CCOC4)c23)c(F)c1)c1cnn(-c2ncccc2F)c1C(F)(F)F (stereo not shown) [Example 40, N-(3-fluoro-4-((2-oxo-1-(tetrahydrofuran-3-yl)-2,3-dihydro-1H-imidazo[4,5-b]pyridine-7-yl)oxy)phenyl)-1-(3-fluoropyridine-2-yl)-5-(trifluoromethyl)-1H-pyrazole-4-carboxamide]",500 to 5000 nM,< 50 nM
"CN1CCC(n2c(=O)[nH]c3nccc(Oc4ccc(NC(=O)c5cnn(-c6ncccc6F)c5C(F)(F)F)cc4F)c32)CC1 [Example 41, N-(3-fluoro-4-((1-(1-methylpiperidine-4-yl)-2-oxo-2,3-dihydro-1H-imidazo[4,5-b]pyridine-7-yl)oxy)phenyl)-1-(3-fluoropyridine-2-yl)-5-(trifluoromethyl)-1H-pyrazole-4-carboxamide]",> 5000 nM,< 50 nM

# The next lines start with the values.
IC50 (cMET),IC50 (RON),SMILES
500 to 5000 nM,< 50 nM,"CC(C)n1c(=O)[nH]c2nccc(Oc3ccc(NC(=O)c4cnn(-c5cccnn5)c4C(F)(F)F)cc3F)c21 [Example 35, N-(3-fluoro-4-((1-isopropyl-2-oxo-2,3-dihydro-1H-imidazo[4,5-b]pyridine-7-yl)oxy)phenyl)-1-(pyridazine-3-yl)-5-(trifluoromethyl)-1H-pyrazole-4-carboxamide]"
500 to 5000 nM,50 to 500 nM,"CCOc1cccnc1-n1ncc(C(=O)Nc2ccc(Oc3ccnc4[nH]c(=O)n(C(C)C)c34)c(F)c2)c1C(F)(F)F [Example 37, 1-(3-ethoxypyridine-2-yl)-N-(3-fluoro-4-((1-isopropyl-2-oxo-2,3-dihydro-1H-imidazo[4,5-b]pyridine-7-yl)oxy)phenyl)-5-(trifluoromethyl)-1H-pyrazole-4-carboxamide]"
